Results from ChEMBL document CHEMBL1132600 (J Med Chem, 1999).

biological target: Cannabinoid receptor 1 (Rattus norvegicus, UniProt P20272); experiment: Tested for binding affinity to Cannabinoid receptor 1
Sequence (P20272 whole entry): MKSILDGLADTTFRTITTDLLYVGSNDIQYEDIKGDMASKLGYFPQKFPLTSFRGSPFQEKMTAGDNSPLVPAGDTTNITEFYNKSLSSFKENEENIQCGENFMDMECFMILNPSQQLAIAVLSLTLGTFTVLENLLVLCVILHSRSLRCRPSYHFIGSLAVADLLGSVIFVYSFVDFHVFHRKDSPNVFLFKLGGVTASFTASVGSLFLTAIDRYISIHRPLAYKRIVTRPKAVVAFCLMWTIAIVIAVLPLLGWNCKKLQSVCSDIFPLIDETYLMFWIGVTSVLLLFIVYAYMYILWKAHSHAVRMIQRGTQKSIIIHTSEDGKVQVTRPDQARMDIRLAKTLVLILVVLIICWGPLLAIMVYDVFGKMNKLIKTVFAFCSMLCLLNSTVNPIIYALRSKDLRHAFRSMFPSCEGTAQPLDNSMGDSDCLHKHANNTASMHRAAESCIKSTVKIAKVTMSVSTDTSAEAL

SMILES	Ki [nM]
CCCCC/C=C\C/C=C\C/C=C\C/C=C\CCCC(=O)N(C)CCO	4980
CCCCC/C=C\C/C=C\C/C=C\C/C=C\CCCC(=O)NC1CCC(O)CC1 (stereo not drawn)	217
CCCCC/C=C\C/C=C\C/C=C\C/C=C\CCCC(=O)NC[C@H](C)O	26
CCCCC/C=C\C/C=C\C/C=C\C/C=C\CCCC(=O)NCCF	8.6
CCCCC/C=C\C/C=C\C/C=C\C/C=C\CCCC(N)=O [ARACHIDONAMIDE]	9600
CCCCCCCC/C=C\CCCCCCCC(=O)N[C@@H](C)CO	> 10000
CCCCC/C=C\C/C=C\C/C=C\C/C=C\CCC(C)(C)C(=O)NCCO	72.2
CCCCC/C=C\C/C=C\C/C=C\C/C=C\CCCC(=O)NC(C)(C)CO	151
CCCCC/C=C\C/C=C\C/C=C\C/C=C\CCCC(=O)Nc1ccc(CO)cc1	> 3000
CCCCCCCC/C=C\CCCCCCCC(=O)NCCO [OLEOYLETHANOLAMIDE]	> 10000
CCCCC/C=C\C/C=C\CCCCCCCC(=O)N[C@@H](C)CO	> 10000
CCCCC/C=C\C/C=C\C/C=C\C/C=C\CCCC(=O)NC[C@@H](C)O	119
CCCCCCCCCCCCCCCCCC(=O)NCCO [N-(2-HYDROXYETHYL)STEARAMIDE]	217
